ChEMBL document CHEMBL4699620, “Peptide Inhibitors of the α-Cobratoxin-Nicotinic Acetylcholine Receptor Interaction” (J Med Chem, 2020)
Where a SMILES comes first, the peptide text is derived from it. [ ]: non-standard residue; d: D form. PEG6 = NCCOCCOCCOCCOCCOCCOCCC(=O)O

Key:
[1] = Stability of compound in PBS buffer measured after 1 day at 37 degC by HPLC analysis; type: physicochemical; settings: 24 h
[2] = target: T1, Alpha-cobratoxin (Naja kaouthia, UniProt P01391); assay: Displacement of TAMRA-HAKTYMWDGWYMPTSH-NH2 from Naja kaouthia alpha-cobratoxin by fluorescence polarization assay
T1 sequence (P01391 whole entry): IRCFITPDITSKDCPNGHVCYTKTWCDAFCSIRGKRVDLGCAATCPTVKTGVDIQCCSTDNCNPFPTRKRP

[3] = Stability of compound in PBS buffer assessed as compound degradation measured after 2 days at 37 degC by HPLC analysis; type: physicochemical; settings: time 2 day, read-out: Drug degradation
[4] = Stability of compound in PBS buffer measured after 1 day at room temperature by HPLC analysis; type: physicochemical; settings: 24 h
[5] = Stability of compound in PBS buffer assessed as compound degradation measured after 9 days at room temperature by HPLC analysis; type: physicochemical; settings: time 9 day, read-out: Drug degradation

Compound	Stabilty [1]	Ki [2] [µM]	degraded at 48 h [3] [%]	Stabilty [4]	degraded at 216 h [5] [%]	IC50 [2] [µM]
CSCC[C@H](NC(=O)[C@H](Cc1ccc(O)cc1)NC(=O)[C@H](Cc1c[nH]c2ccccc12)NC(=O)CNC(=O)[C@H](CC(=O)O)NC(=O)[C@H](Cc1c[nH]c2ccccc12)NC(=O)[C@H](CCSC)NC(=O)[C@H](Cc1ccc(O)cc1)NC(=O)CCOCCOCCOCCOCCOCCOCCN)C(N)=O (H-[PEG6]YMWDGWYM-NH2)	Stable	26	7	Stable	7	
Ac-HAKTYMWDGWYMPTSH-NH2	Stable	2		Stable		29
